Assay results published in US20230265167A1, “COMPOSITIONS HAVING NEUROREGENERATIVE APPLICATIONS” (GRIFOLS WORLDWIDE OPERATIONS LIMITED, priority 2020, published 2023).

Legend:
[1] = tested on: C57BL/6J mice with transient MCAo; assay: Neuroscore recovery after transient MCAo; type: in vivo, mouse; conditions: FIG. 10A, 3-14 days after MCAo, vs saline
Experimental: C57BL/6J mice (ca. 20 g) were anaesthetized under isoflurane and, after dissection, a 6.0 silicon-coated monofilament suture was inserted into the external carotid artery to occlude the middle cerebral artery (MCAo). The occlusion was carried out for 60 minutes under temperature control.
Only animals with a ‘neuroscore’ of 4 or greater were considered for further testing (n=8-10 animals/group). At six hours post-occlusion, mice were injected daily with 350 mg/kg of Apo-transferrin (i.p.) or an equal volume of saline for a total of seven days, as well as with 50 mg/kg Bromodeoxyuridine (BrdU; Sigma-Aldrich Chemical, St. Louis, Mo.), both articles delivered by intraperitoneal administration. Weight changes were monitored daily.
Mice were prepared as indicated in Example 9 above and were subjected to assessments at 3 days and 1, 2, 3, 4 weeks post-MCAo, as indicated (n=8-10 animals/group). Motor coordination (i.e. equilibrium behavior and locomotor ability as a function of cortico-striatal function) was assessed using a rotarod test. Learning and memory capacity were measured using the NORT (novel object recognition test; for example, Anglada-Huguet et al., 2014, Molecular Neurobiology, vol. 49, pages 784-795; Denninger et al., 2018, J. Vis. Exp., vol. 141, e58593). […]

rat model of stroke = conditions: vs control rats; cited from earlier work
SH-SY5Y cells [2] = assay: Cell number / proliferation of SH-SY5Y cells by imaging; type: cell-based, human
Experimental: Undifferentiated SH-SY5Y cells were seeded into 96 well clear bottom plates in media containing 0.1% FBS. A serum-free base media was utilized as recommended by the supplier for SH-SY5Y cells (Sigma, Cat #94030304-1VL). Twenty-four hours after seeding cells, a 3× stock solution of ApoTf, final concentrations indicated on the x-axis, in serum free base media was added to the cells. ApoTf was obtained and purified from pooled human plasma and dosed at a final concentration of 0.2 mg/mL.
Cells were allowed to differentiate for 6 days. Neurite growth was assessed by imaging and image analysis. At the time of analysis, a 10× solution of Tubulin Tracker (Molecular Probes, T34075) and Hoechst 33342 (Molecular Probes #H3570) nuclear stain was prepared.
Briefly, Tubulin Tracker dissolved in DMSO was diluted 1:1 with Pluronic F-127 and further diluted into HBSS to generate a 10× solution. Hoechst 33342 was added to the HBSS-Tubulin Tracker solution at 10 μg/mL to generate a 10× nuclear stain. […]
After obtaining images, the MetaExpress Neurite Outgrowth analysis module (Molecular Devices) was used to identify cells, cell bodies, and quantify neurites. […] The Outgrowth Fold Change was determined by setting the untreated control cells to a value of 1 with all other treatments shown relative to untreated control.

SH-SY5Y cells [3] = assay: β-III-tubulin staining intensity in SH-SY5Y cells; type: cell-based, human; conditions: FIG. 1D
Experimental: In this experiment, the SH-SY5Y cells were differentiated as described supra. At the time of analysis, cells were fixed with paraformaldehyde, stained for β-III-tubulin (R&D Systems, MAB1195), and imaged on a Molecular Devices Nano imaging instrument. Image analysis was performed by assessing the fluorescent intensity of cells stained with β-III-tubulin. Background from secondary antibody alone was subtracted from all values. Values are shown with standard deviations as “β-III-Tubulin Staining Intensity” for the indicated conditions.

Substance: apo-transferrin: iron-free form of transferrin protein, obtained and purified from pooled human plasma
- rate of recovery (percentage of animals with neuroscore 0) [1]: quicker recovery
- rate of recovery (percentage of animals with neuroscore 0) ([1]; listed as ApoTf): significantly improves the rate at which the animals recover
- volume of the infarcted area (neuroprotective effect) (rat model of stroke): decrease in the volume of the infarcted area
- cell numbers (cell proliferation) (SH-SY5Y cells [2]; FIG. 1B, up to 0.8 mg/mL): induces a concentration-dependent increase in cell numbers
- cell proliferation, visual comparison to untreated control (SH-SY5Y cells [2]; FIG. 1C, 0.1 mg/mL): profound effect on promoting cell proliferation
- β-III-Tubulin Staining Intensity (SH-SY5Y cells [3]): caused an increase in β-III-tubulin protein
